Values of other authors, collected in patent US10092545B2, “Nutritional supplements for improving female fertility” (Fairhaven Health, LLC, priority 2016, dated 2018).

Columns and labels:
[1] = test system: oocyte-specific Pdss2-deficient animals; details: maternal dietary administration
obese women with PCOS = details: administering for as little as two months
females = females taking myo-inositol

SMILES: COC1=C(OC)C(=O)C(C/C=C(\C)CC/C=C(\C)CC/C=C(\C)CC/C=C(\C)CC/C=C(\C)CC/C=C(\C)CC/C=C(\C)CC/C=C(\C)CC/C=C(\C)CCC=C(C)C)=C(C)C1=O [CoQ10, Coenzyme Q10]
- premature ovarian failure [1]: could be prevented

SMILES: [Cr] [chromium]
- improvement of insulin sensitivity (obese women with PCOS): more than 30%

SMILES: COc1ccc2[nH]cc(CCNC(C)=O)c2c1 [melatonin]
- fertilization and pregnancy rates (infertile women): elevates
- intra-follicular melatonin concentrations (infertile women): increases
- intra-follicular oxidative damage (infertile women): reduces

SMILES: O[C@H]1[C@H](O)[C@@H](O)[C@H](O)[C@@H](O)[C@H]1O [myo-inositol]
- insulin sensitivity (females): increased
- serum testosterone level (females): decreased
